From US20130331345A1, “PUERARIN HYDRATES, PREPARATION METHODS AND USES THEREOF” (priority 2010, published 2013)

What was measured:
[1] = Sticking in direct tableting of powder; assay type: physicochemical; settings: tableting 200 mg of powder; printed '1-3 times or higher'
Description: In addition, the puerarin hydrate of the present invention overcomes the drawback of deliquescent property of anhydrous puerarin, so that it is not necessary to isolate air to prevent adhesion, and has good sliding property, and the manipuility for manufacturing preparations is improved. Anhydrous puerarin has sticking phenomenon when its powder is used for direct tableting. When tableting 200 mg of powder, anhydrous puerarin has a sticking amount 1-3 times or higher than that of puerarin monohydrate.

[2] = Hygroscopicity test according to the Pharmacopoeia of the People's Republic of China; assay type: physicochemical; settings: 25° C., relative humidity 75%, 48 h
Description: (§1) The sample of the puerarin hydrate above (prepared by method of Example 1) and anhydrous puerarin (anhydrous puerarin was prepared by: drying the hydrate as prepared in Example 1 at 90-105° C. in the presence of phosphorus pentoxide under vacuum for 24-72 hours or more to obtain an anhydrous puerarin, and the water content of anhydrous puerarin was usually lower than 1.0% as measured by Karl Fisher method) were sealed in penicillin bottles to perform accelerated stability test (chromatography conditions: chromatography column: C18 (150 mm×4.6 mm, 5 μm); mobile phase: 0.1% citric acid solution-methanol (75:25); flow rate: 1 ml/min; temperature: room temperature; detection wavelength: 250 nm). […] Hygroscopicity test was performed according to the Pharmacopoeia of the People's Republic of China: about 5 g of anhydrous puerarin and the crystalline hydrate of the present invention were taken, placed in dry watch glasses with constant weight, weighed precisely. Samples were taken separately at 0 h and 48 h of the test at 25° C. and relative humidity of 75%, and hygroscopicity weight gain percentages were calculated.

[3] = Accelerated stability test (40° C., RH75%), sealed in penicillin bottles; assay type: physicochemical; settings: for Marked content (%) / Property / Related substance (%): accelerated, 40° C.
Description: as §1

[4] = test system: chronic ocular hypertension; test: Effects on chronic ocular hypertension of rabbits (dexamethasone model); assay type: in vivo; settings: within 24 hours, puerarin hydrate 1% (W/V), betaxolol 0.5% (W/V)
Description: Chronic Ocular Hypertension Models: 32 rabbits, half male and half female, were subjected to sub-conjunctive injection with 0.5 mg of dexamethasone under corneal limbus, once every other day, for consecutive 3 weeks, to obtain chronic ocular hypertension models, then randomly divided into physiological saline group, betaxolol group [0.5% (W/V)], puerarin hydrate group [1% (W/V)]. The maximum decrease of intraocular pressure was measured within 24 hours.

[5] = test system: blood pressure and heart rate; settings: conscious spontaneously hypertensive rats, intraperitoneal injection; cited from earlier work
β2 receptor = molecular target: T1, β2 receptor (Cavia porcellus, UniProt Q8K4Z4); settings: trachea strip of guinea pigs; cited from earlier work
T1 construct: trachea strip β2 receptor of guinea pigs; from tissue; host or cells: guinea pig trachea strip
T1 sequence (Q8K4Z4 whole entry): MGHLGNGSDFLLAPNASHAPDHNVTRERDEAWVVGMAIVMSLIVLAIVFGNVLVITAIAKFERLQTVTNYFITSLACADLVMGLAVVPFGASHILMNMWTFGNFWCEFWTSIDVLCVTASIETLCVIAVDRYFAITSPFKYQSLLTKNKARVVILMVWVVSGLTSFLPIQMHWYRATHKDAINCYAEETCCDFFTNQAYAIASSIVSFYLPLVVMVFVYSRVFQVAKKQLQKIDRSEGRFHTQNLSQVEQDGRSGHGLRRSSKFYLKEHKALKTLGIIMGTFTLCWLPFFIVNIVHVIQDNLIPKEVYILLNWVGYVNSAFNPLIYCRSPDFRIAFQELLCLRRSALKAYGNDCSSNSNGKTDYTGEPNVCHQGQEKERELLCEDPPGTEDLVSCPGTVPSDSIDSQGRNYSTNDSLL

ethanol intake = settings: rats, intraperitoneal injection; cited from earlier work
sudden deafness = settings: injection, within 2 weeks after administration; cited from earlier work
intraocular pressure = settings: ocular hypertension rabbit models induced by dexamethasone; cited from earlier work
blood pressure = settings: anesthetized dogs, injection; cited from earlier work
β1 receptor = molecular target: T2, β1 receptor (Cavia porcellus, UniProt H0W3H1); settings: ex vivo atrial muscle of guinea pigs; cited from earlier work
T2 construct: ex vivo atrial muscle β1 receptor of guinea pigs; from tissue; host or cells: guinea pig atrial muscle, ex vivo
T2 sequence (H0W3H1 1-470): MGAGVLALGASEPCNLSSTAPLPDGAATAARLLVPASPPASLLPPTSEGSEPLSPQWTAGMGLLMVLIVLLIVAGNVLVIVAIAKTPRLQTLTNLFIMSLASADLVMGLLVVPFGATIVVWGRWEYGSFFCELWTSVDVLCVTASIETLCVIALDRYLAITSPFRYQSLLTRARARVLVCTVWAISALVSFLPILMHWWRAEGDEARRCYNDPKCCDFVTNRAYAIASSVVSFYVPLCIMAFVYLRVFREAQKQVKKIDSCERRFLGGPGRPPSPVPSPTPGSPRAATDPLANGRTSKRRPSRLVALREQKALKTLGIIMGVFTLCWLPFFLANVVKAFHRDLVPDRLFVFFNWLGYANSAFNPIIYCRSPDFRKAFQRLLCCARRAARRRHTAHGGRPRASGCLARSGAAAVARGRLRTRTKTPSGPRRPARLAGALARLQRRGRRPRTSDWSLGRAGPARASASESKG

β receptor = settings: cited from earlier work
benzodiazepine receptor = settings: cited from earlier work
ACE = molecular target: T3, ACE (Rattus norvegicus, UniProt P47820); test: Effects on inhibiting ACE activity (rat blood serum after intraperitoneal injection); assay type: in vivo, Wistar rats; settings: rats, 200 mg/kg intraperitoneal
T3 construct: from tissue; host or cells: blood serum of Wistar rats
T3 sequence (P47820 36-1313): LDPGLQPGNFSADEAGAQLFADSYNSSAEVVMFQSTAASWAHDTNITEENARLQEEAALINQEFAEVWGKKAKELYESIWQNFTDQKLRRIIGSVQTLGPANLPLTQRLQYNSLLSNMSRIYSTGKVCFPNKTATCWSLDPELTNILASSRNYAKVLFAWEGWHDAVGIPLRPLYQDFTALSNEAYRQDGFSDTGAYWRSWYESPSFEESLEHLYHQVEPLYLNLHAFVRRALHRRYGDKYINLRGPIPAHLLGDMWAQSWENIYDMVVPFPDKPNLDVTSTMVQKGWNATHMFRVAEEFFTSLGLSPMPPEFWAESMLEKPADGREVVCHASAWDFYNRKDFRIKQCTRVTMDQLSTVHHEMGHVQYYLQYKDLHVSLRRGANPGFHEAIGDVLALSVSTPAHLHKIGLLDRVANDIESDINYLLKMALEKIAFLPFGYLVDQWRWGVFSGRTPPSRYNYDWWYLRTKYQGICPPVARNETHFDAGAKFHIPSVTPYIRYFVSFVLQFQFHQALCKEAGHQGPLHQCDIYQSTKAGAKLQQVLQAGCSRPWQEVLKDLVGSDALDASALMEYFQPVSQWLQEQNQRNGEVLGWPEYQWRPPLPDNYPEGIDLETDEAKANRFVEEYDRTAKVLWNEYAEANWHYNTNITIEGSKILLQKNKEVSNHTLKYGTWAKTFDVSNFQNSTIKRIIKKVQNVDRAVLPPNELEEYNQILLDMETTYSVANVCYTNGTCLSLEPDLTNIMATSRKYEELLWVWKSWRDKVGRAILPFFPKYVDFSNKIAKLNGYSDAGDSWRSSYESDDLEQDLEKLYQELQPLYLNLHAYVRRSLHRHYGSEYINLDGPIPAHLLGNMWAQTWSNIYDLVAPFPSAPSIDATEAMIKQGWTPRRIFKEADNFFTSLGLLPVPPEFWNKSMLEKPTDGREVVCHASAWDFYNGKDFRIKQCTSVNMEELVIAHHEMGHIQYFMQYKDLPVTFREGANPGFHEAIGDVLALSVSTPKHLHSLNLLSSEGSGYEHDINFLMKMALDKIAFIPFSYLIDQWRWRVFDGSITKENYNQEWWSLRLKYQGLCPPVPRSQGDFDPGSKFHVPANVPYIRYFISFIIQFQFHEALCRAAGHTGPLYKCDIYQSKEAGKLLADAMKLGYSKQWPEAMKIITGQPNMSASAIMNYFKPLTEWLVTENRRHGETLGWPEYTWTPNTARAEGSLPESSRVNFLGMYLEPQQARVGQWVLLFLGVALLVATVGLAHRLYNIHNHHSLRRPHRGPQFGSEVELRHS
Description: 24 Wistar rats, 280-300 g, were randomly divided into 3 groups, 8 rats per group, one group was control group, other two groups were separately 100 mg/kg, 200 mg/kg dose groups (which was added with cosolvent to form an injectable solution), subjected to intraperitoneal injection, the control group was administered with physiological saline. 60 min after administration, the rats were anesthetized with 1% pentobarbital sodium, subjected to thoracotomy and blood sample was taken from heart, the blood sample stood at room temperature for 30 min, centrifuged under 3500 r/min at low temperature for 10 min, the supernatant was taken and stored at about −65° C., for test. Measurement of ACE activity: referring to document [WANG, Fumin, et al, Chinese Journal of Laboratory Medicine, 1983, 6(3):145-151], the results were subjected to statistical treatment: the results were expressed in x±S, and data were subjected to analysis of variance and t-test.

O=c1c(-c2ccc(O)cc2)coc2c([C@@H]3O[C@H](CO)[C@@H](O)[C@H](O)[C@H]3O)c(O)ccc12 [Anhydrous puerarin, reference compound]
Sticking amount relative to puerarin monohydrate [1]: 1-3 times | Hygroscopicity compared with the hydrate of the present invention [2]: much higher | In comparison with 0 h, weight gain, % [2]: 4.26% | Increase of related substance, 6 month results compared to 0 month results ([3]; accelerated test 40° C., compared with puerarin monohydrate): higher increase

CC(C)NCC(O)COc1ccc(CCOCC2CC2)cc1 (stereo not shown) [Betaxolol, reference compound]
Maximum decrease of intraocular pressure (mmHg) [4]: 1.9 mmHg

O=c1c(-c2ccc(O)cc2)coc2c([C@@H]3O[C@H](CO)[C@@H](O)[C@H](O)[C@H]3O)c(O)ccc12 [Puerarin, 8-β-D-glucopyranosyl-4′,7-dihydroxylisoflavone]
Blood pressure and heart rate [5]: significantly reduce | Action on β2 receptor (β2 receptor): relatively great concentration is required | Ethanol intake (ethanol intake): significantly reduce | Patients with good state of nail fold microcirculation and improved audition (sudden deafness): 70% | Intraocular pressure (intraocular pressure): reduce | Blood pressure (blood pressure): rapid dose-dependent decrease | Action on β1 receptor (β1 receptor): significant antagonistic action | Effect on activation function of adrenalin on adenylate cyclase (β receptor): completely inhibit | Activity at benzodiazepine receptor (benzodiazepine receptor): antagonist or partial agonist

O=c1c(-c2ccc(O)cc2)coc2c([C@@H]3O[C@H](CO)[C@@H](O)[C@H](O)[C@H]3O)c(O)ccc12 [Sample 2, puerarin monohydrate]
Maximum decrease of intraocular pressure (mmHg) ([4]; monohydrate): 2.4 mmHg

O=c1c(-c2ccc(O)cc2)coc2c([C@@H]3O[C@H](CO)[C@@H](O)[C@H](O)[C@H]3O)c(O)ccc12 [Sample 3, puerarin monohydrate]
inhibition at 200 mg/kg (ACE; rat, ip, vs control group, read-out: inhibition rate (%)): 51% | ACE (IU) (ACE; blood taken 60 min after administration): 26.7 ± 6.35 IU

O.O=c1c(-c2ccc(O)cc2)coc2c([C@@H]3O[C@H](CO)[C@@H](O)[C@H](O)[C@H]3O)c(O)ccc12.O=c1c(-c2ccc(O)cc2)coc2c([C@@H]3O[C@H](CO)[C@@H](O)[C@H](O)[C@H]3O)c(O)ccc12 [Sample 5, puerarin 0.5 hydrate]
In comparison with 0 h, weight gain, % [2]: 1.51% | Marked content (%) ([3]; sampling time 0 month): 99.1% | Property ([3]; sampling time 0 month): off-white powder | Related substance (%) ([3]; sampling time 0 month): <2% | Marked content (%) ([3]; sampling time 1 month): 99.2% | Property ([3]; sampling time 1 month): off-white powder | Related substance (%) ([3]; sampling time 1 month): <2% | Marked content (%) ([3]; sampling time 2 month): 99.2% | Property ([3]; sampling time 2 month): off-white powder | Related substance (%) ([3]; sampling time 2 month): <2% | Marked content (%) ([3]; sampling time 3 month): 99.0% | Property ([3]; sampling time 3 month): off-white powder | Related substance (%) ([3]; sampling time 3 month): <2% | Marked content (%) ([3]; sampling time 6 month): 98.9% | Property ([3]; sampling time 6 month): off-white powder | Related substance (%) ([3]; sampling time 6 month): <2% | Maximum decrease of intraocular pressure (mmHg) [4]: 2.5 mmHg
